Several values for one entry are separate records, joined by “and”; a condition that tells them apart may be missing. Identical values can stand only once. Like-named read-outs stand apart in the source and are kept apart here. Starred links: 1 amine or outer side, 2 acyl side, 3 side chain; linkers in the order of their positions; H or OH if unused. Positions of bridges follow the written chain, without caps; N, C: chain ends. Non-standard residues stand in square brackets, D forms with d. Residues, ends and D or L forms follow the SMILES beside them. ξ: configuration not given here. X1 = O=C([C@@H]1CCN=C2C(N[*:1])=Cc3cc(O)c(O)cc3N21)[*:2]; ξOrn(N(OH)CHO) = NC(CCCN(O)C=O)C(=O)O; Suc = O=C(CCC(=O)[*:2])[*:1]; ξK = NCCCCC(N)C(=O)O; ξS = NC(CO)C(=O)O
How the values were obtained:
PA14 ΔfpvA mutant = assay: Growth curves with DSX and siderophores, ΔfpvA; type: cell-based, Pseudomonas aeruginosa; details: 20 h; for growth with siderophore in the presence of DSX: 64 μg/mL DSX + 10 μg/mL siderophore
Method: (§1) Supplementary file : FIG S1 (A) FpvB is expressed in WT PA14 and the ΔfpvA mutant grown in 10:90. PilF was used as a loading control for outer membrane proteins. (B) FpvA is expressed from WT PA14 grown in 10:90. […] PilF was used as a loading control for outer membrane proteins. (C) Growth curves of PA14 and mutants with DSX and different siderophores in 10:90. PA14, ΔfpvA, ΔfpvB, ΔfpvA ΔfpvB, and ΔpvdA ΔpchA strain growth. Blue indicates control, purple indicates treatment with 64 μg/mL DSX, yellow indicates treatment with 10 μg/mL pyoverdine (PA14), and red indicates treatment with 64 μg/mL DSX and 10 μg/mL pyoverdine (PA14). (D) ΔfpvA, ΔfpvA ΔfpvB, and ΔpvdA ΔpchA strain growth. Blue indicates control, purple indicates treatment with 64 μg/mL DSX, grey indicates treatment with 10 μg/mL ferrichrome, and red indicates treatment with 64 μg/mL DSX and 10 μg/mL ferrichrome. (E) ΔfpvA, ΔfpvA ΔfpvB, and ΔpvdA ΔpchA strain growth. […] Download FIG S1, EPS file, 8.5 MB.
Another explanation for the susceptibility of the ΔfpvA mutant to DSX is that the mutant produces less pyoverdine compared to WT cells due to loss of the signaling cascade that controls siderophore production in response to its binding to FpvA ([25]). To differentiate whether the fpvA mutant was susceptible to DSX because of reduced pyoverdine production or because FpvB was a poor pyoverdine transporter, we treated the WT, ΔfpvA, ΔfpvB, and ΔfpvA ΔfpvB strains with DSX (64 μg/mL) without and with exogenous pyoverdine (10 μg/mL) for 20 h (Fig. 1; see also Fig. S1C). Growth of the ΔfpvA mutant should be restored if there are functional pyoverdine transporters. […] The growth of the ΔfpvA ΔfpvB mutant was inhibited by DSX and pyoverdine, confirming previously published results ([18]).
(§2) As a control, a ΔpvdA ΔpchA mutant unable to make pyoverdine and pyochelin was also tested. Growth of this mutant was inhibited by DSX.

PA14 ΔpvdA ΔpchA mutant = assay: Growth curves with DSX and siderophores, ΔpvdA ΔpchA; type: cell-based, Pseudomonas aeruginosa; details: 64 μg/mL DSX + 10 μg/mL siderophore, 20 h
Method: as §1, §2

FpvB R191A R648C = target: T1, FpvB R191A R648C (Pseudomonas aeruginosa, UniProt A0A0H2ZFZ5, R191A/R648C); assay: Whole-cell fluorescence quenching, FpvB R191A R648C; type: binding; details: FpvB R191A R648C
T1 sequence (A0A0H2ZFZ5 23-802 R191A/R648C): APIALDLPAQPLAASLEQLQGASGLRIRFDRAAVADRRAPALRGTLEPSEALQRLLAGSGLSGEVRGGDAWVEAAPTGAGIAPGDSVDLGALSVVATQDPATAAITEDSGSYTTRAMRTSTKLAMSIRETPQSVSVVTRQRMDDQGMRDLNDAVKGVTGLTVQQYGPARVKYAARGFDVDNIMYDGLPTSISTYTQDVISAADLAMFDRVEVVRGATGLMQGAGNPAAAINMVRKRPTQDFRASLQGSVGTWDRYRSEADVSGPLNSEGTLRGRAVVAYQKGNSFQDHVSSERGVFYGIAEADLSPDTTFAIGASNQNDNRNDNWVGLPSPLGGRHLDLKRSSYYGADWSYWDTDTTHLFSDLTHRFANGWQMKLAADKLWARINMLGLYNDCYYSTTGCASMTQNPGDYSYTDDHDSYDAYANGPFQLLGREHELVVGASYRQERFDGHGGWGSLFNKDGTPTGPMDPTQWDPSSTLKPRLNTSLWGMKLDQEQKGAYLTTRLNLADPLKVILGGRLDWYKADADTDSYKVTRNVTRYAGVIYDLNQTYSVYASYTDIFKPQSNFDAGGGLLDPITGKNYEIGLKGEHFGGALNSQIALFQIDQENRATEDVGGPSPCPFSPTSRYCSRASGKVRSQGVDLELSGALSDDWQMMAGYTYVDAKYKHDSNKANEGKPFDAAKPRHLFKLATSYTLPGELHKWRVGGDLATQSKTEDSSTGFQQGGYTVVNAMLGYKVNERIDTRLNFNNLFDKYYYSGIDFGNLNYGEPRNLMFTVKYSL
Method: Quenching assays with the two xenosiderophores were repeated for the quadruple TBDT mutant expressing WT FpvB, FpvB R191A R648C, or W347V R648C.
(§3) Cells were cultured overnight in LB with carbenicillin (200 μg/mL) at 37°C with shaking at 200 rpm. Cells were subcultured (1:200 dilution) in 10:90 plus 2% arabinose for 4 h without carbenicillin at 37°C with shaking at 200 rpm. Cells were harvested by centrifugation for 5 min and 6,000 × g and resuspended in sterile 1× phosphate-buffered saline (PBS) (pH 7.4); 1× PBS was made from a 10× stock (80 g NaCl, 2 g KCl, 26.8 g Na2 HPO4-7H2O, 2.4 g KH2PO4 in 1 L of deionized H2O) with 10 μM Alexa Fluor 594 C5 maleimide for microscopy or fluorescein-5-maleimide for fluorescence quenching and recovery assays and incubated in the dark at room temperature for 30 min on a shaking incubator at 37°C (200 rpm). Excess dye was quenched with 1 mM dithiothreitol (DTT) (Sigma) to stop the reaction. Cells were washed 3× with PBS. For fluorescence recovery assays, cells were incubated with 1× PBS plus 0.4% glucose at 37°C with shaking at 200 rpm. Glucose was prepared as a 20% stock (wt/vol) in 1× PBS and filter sterilized. Cells were spun down and washed 3× with 1× PBS and resuspended in 1× PBS for quenching assays and 1× PBS plus 0.4% glucose for fluorescence recovery assays.
(§4) For fluorescence quenching and recovery assays, cells were diluted to an OD600 of 0.1 for both types of assays, and 148 μL was added into wells of a 96-well black plate (Corning). Fluorescence was recorded for 5 min at 1-min intervals at 37°C (BioTek Neo; excitation, 494 nm; emission, 520 nm). After 5 min, 2 μL of each serial dilution for ferrioxamine-Fe^3+, ferrichrome-Fe^3+, and pyoverdine-Fe^3+ or DMSO for vehicle controls was added to each well. Fluorescence was recorded immediately for quenching assays and for 1 h at 1-min intervals for fluorescence recovery assays. Background fluorescence was subtracted from all fluorescence readings and 1-F/F0 was used to calculate the degree of quenching, where F0 is the initial fluorescence. Kd was calculated using GraphPad Prism using a one-site specific binding model or a two-site model. For fluorescence recovery assays, background was subtracted from all fluorescence readings and F/F0 expressed as a percent of control was plotted versus time.

FpvB R648C = target: T2, FpvB R648C (Pseudomonas aeruginosa, UniProt A0A0H2ZFZ5, R648C); assay: Fluorescence recovery assay (siderophore uptake by FpvB); type: cell-based
T2 sequence (A0A0H2ZFZ5 23-802 R648C): T1 sequence (A0A0H2ZFZ5 23-802 R191A/R648C)
Method: Cells were equilibrated for 5 min prior to introduction of the siderophores. Fluorescence was recorded every min for 1 h. Carbonyl cyanide m-chlorophenylhydrazone (CCCP) was used as a control to inhibit fluorescence recovery through dissipation of the proton motive force (PMF) ([2], [3]), which is required for uptake.
as §3, with “Glucose was prepared as a 20% stock (wt/vol) in 1× PBS and filter sterilized.” left out
as §4, with “After 5 min, 2 μL of each serial dilution for ferrioxamine-Fe^3+, ferrichrome-Fe^3+, and pyoverdine-Fe^3+ or DMSO for vehicle controls was added to each well.” left out, “For fluorescence recovery assays, background was subtracted from all fluorescence readings and F/F0 expressed as a percent of control was plotted versus time.” left out

SMILES | growth with siderophore in the presence of DSX (PA14 ΔfpvA mutant) | growth versus control (PA14 ΔfpvA mutant; DSX 64 μg/mL or pyoverdine 10 μg/mL alone, 10:90) | growth with siderophore in the presence of DSX (PA14 ΔpvdA ΔpchA mutant) | affinity (Kd not reached, no saturation at highest concentration) (FpvB R191A R648C) | fluorescence recovery (FpvB R648C; siderophore at 1/2 Kd (1/2 Kd2 for ferrioxamine B), recorded for 1 h) | Kd (FpvB R191A R648C; one-site model, read-out: Kd (converted)) | fluorescence recovery (FpvB R648C)
NCCCCC(NC(=O)C(CO)NC(=O)[C@@H]1CCN=C2C(NC(=O)CCC(=O)O)=Cc3cc(O)c(O)cc3N21)C(=O)NCC(=O)NC(CCCN(O)C=O)C(=O)NC1CCCCNC(=O)C(CO)NC(=O)C(CCCN(O)C=O)NC1=O (stereo partly drawn) [pyoverdine] (Suc-[X1][ξS][ξK]G[ξOrn(N(OH)CHO)][ξK][ξOrn(N(OH)CHO)][ξS]; lactam 6-C) | restored growth compared to DSX alone | delayed growth | restored growth | reduced affinity | no recovery |  | 
CC(=O)N(O)CCCCCNC(=O)CCC(=O)N(O)CCCCCNC(=O)CCC(=O)N(O)CCCCCN [ferrioxamine B] | rescued growth |  | rescued growth |  |  | 535 µM and 480 µM | ~ 50 % of the control

From publication PMC9973354 (mBio, 2022)
